The numbers were not newly measured in US20100261663A1, “Compositions Containing Harpagoside and Paeoniflorin and Methods for Treatment of Conditions Associated with Pain, Inflammation, Arthritis and Symptoms Thereof” (Restorative Remedies, priority 2009, published 2010), which cites them from elsewhere.

Like-named read-outs stand apart in the source and are kept apart here.

One may read the Cmax as the maximum level reached in the sampled fluid or tissue. The term AUC(0-t) denotes the area under the concentration-time curve up to a stated or last time point. What is called LD50 is the dose expected to kill half of the subjects tested. In general, Vdss refers to a proportionality between amount in the body and measured concentration, not a real space.

Data set [1] relates to patients with hip and knee osteoarthritis. The note with it: after four months; extract 2,610 mg per day, diacerhein 100 mg per day; no significant differences.
The test system of data set [2] is patients suffering from osteoarthritis of the knee and hip. The note with it: 4 months.
For data set [3], the system named is human intestinal microflora.
For data set [4] the following is noted: for Cmax: human whole blood.
Data set [5] deals with mice.
Experiment in data set [6]: not given
The source holds these as a separate data set.

Data set [7] has as its system intestinal bacteria in rat feces.
The conditions of data set [8]: mice plasma, oral peony root extract.
Data set [9] deals with Bacillus subtilis. To be noted: Bacillus subtilis rec assay.
The test system of data set [10] is Rodent-mouse.
The conditions of data set [11]: rats; for Cumulative biliary excretion: within 24 h.
Data set [12] relates to Salmonella. The note with it: Salmonella microsome reversion assay.
The conditions of data set [13]: everted sac, at 60 min.
The mark [14] stands for this setting: single oral 43.8 mg harpagoside/600 mg extract (study 1).
Setting [15] is: single oral 100 mg harpagoside/400 mg extract (study 1).
The mark [16] stands for this setting: single oral 108 mg harpagoside/1200 mg extract (study 3).
Setting [17] is: single oral 150 mg harpagoside/600 mg extract (study 2).
Setting [18] is: single oral 162 mg harpagoside/1800 mg extract (study 3).
The mark [19] stands for this setting: single oral 200 mg harpagoside/800 mg extract (study 1).
[20] abbreviates: 5 mg kg^−1 intravenous, within 72 h.

Take `CC(=O)Oc1cccc2c1C(=O)c1c(OC(C)=O)cc(C(=O)O)cc1C2=O` [diacerhein]: the osteoarthritis symptoms result in data set [1] is on record as “considerable improvements”. The “diarrhea, patients” value in data set [2] is listed as 26.7%. For the same compound, the “Spontaneous pain (10 cm visual analogue scale)” value in [2] (Harpadol 6 capsules/day, diacerhein 100 mg/day, no difference between treatments) is on record as “significant improvement”. Also, the Lequesne functional index result in data set [2] (no statistical difference between treatments) was “progressive and significant reduction”.

With `C[C@]1(OC(=O)/C=C/c2ccccc2)C[C@@H](O)[C@]2(O)C=CO[C@@H](O[C@@H]3O[C@H](CO)[C@@H](O)[C@H](O)[C@H]3O)[C@@H]21` [harpagoside], the “biological activity at acidic pH of gastric secretions” value is listed as “significantly reduced”. Besides, the transformation product result in [3] is on record as “transformed into the pyridine monoterpene alkaloid aucubinine B”. Moreover, the “harpagoside in whole blood” value in [4] (after 600 mg Harpagophytum extract in study 3 (54 mg harpagoside), oral) is recorded as “no harpagoside was detected”. Further, in data set [4] (setting [14]), the Cmax is recorded as 15.4 ng/mL and the tmax is recorded as 2 h. In data set [4] (setting [15]), the Cmax is reported as 16.4 ng/mL, the “AUC(0-t)” value is 65.9 ng·h/mL, the “AUC(0-∞)” value is 82 ng·h/mL and the CL is given as 20.3 L/min. Moreover, in data set [4] (setting [15]), the “Terminal t1/2” value is 3.7 h and the tmax is 2.5 h. In [4] (setting [16]), the Cmax was 8.2 ng/mL, the area under the curve AUC(0-t) was 17.2 ng·h/mL and the tmax was 1.3 h. Also, in data set [4] (setting [17]), the Cmax is given as 32.2 ng/mL, the “AUC(0-t)” value is 157.5 ng·h/mL, the “AUC(0-∞)” value is 226 ng·h/mL and the CL was 12.2 L/min. Further, in data set [4] (setting [17]), the “Terminal t1/2” value is 5.6 h and the tmax is listed as 1.3 h. In addition, in data set [4] (setting [18]), the Cmax is listed as 27.8 ng/mL, the area under the curve AUC(0-t) was 160.5 ng·h/mL, the “AUC(0-∞)” value was 187.9 ng·h/mL and the CL is on record as 14.4 L/min. In [4] (setting [18]), the “Terminal t1/2” value is listed as 4.4 h and the tmax is listed as 1.8 h. In data set [4] (setting [19]), the Cmax is recorded as 50.1 ng/mL, the “AUC(0-t)” value is 225.7 ng·h/mL, the “AUC(0-∞)” value was 355.8 ng·h/mL and the CL was 9.4 L/min. Besides, in data set [4] (setting [19]), the “Terminal t1/2” value is reported as 6.4 h and the tmax is 2.5 h. Further, the clearance entry in data set [4] (overall, oral) is listed as “about 15 L/min”. Also, the median lethal dose (LD50) entry in data set [5] is “greater than 13.5 grams per kg of body weight”.

As to `C[C@@]12C[C@@]3(O)O[C@@H](O1)[C@]1(COC(=O)c4ccccc4)[C@H]3C[C@@]12O[C@@H]1O[C@H](CO)[C@@H](O)[C@H](O)[C@H]1O` [paeoniflorin, 5β-[(Benzoyloxy)methyl]tetrahydro-5-hydroxy-2-Methyl-2,5-methano-1H-3,4-dioxacyclobuta[cd]pentalen-1α(2H)-yl-β-D-glucopyranoside], the “metabolism in the gut wall” value in data set [6] (AUC after intraperitoneal 0.5 mg kg^−1 versus intraportal or intravenous) is “not metabolized in the gut wall”. Besides, in data set [6] (intraportal versus intravenous, 0.5 and 5 mg kg^−1), the hepatic extraction ratio entry is “negligible”. The “mean pulmonary extraction ratio” value in data set [6] (venous versus arterial AUC after intravenous 0.5 mg kg^−1) is listed as 0.06. In addition, the metabolites formed result in data set [7] is “paeonimetabolin-1 (PM-1) and thio-paeonimetabolin-1 (PT-PM-1)”. Also, the “mean terminal half-life (t(1/2))” value in data set [8] was 1.569 h. The mutagenicity entry in data set [9] and in [12] was “nonmutagenic” throughout. The LD50 is 3530 mg/kg in data set [10] (Intraperitoneal) and 9530 mg/kg in data set [10] (Intravenous). Further, the “Toxic Effects” value in [10] (Intraperitoneal) is reported as “Behavioral-somnolence (general depressed activity)”; in data set [10] (Intravenous) it was “Behavioral-sleep. Behavioral-somnolence (general depressed activity)”. Also, the figures for the Cumulative biliary excretion in data set [11] (0.5 mg kg^−1 intravenous) and in data set [11] (0.5 mg kg^−1 oral) were 6.9 % of the dose and 1.3 % of the dose, respectively. Moreover, the cumulative fecal excretion is listed as 0.22 % of the dose in [11] (setting [20]) and 0.08 % of the dose in data set [11] (5 mg kg^−1 oral, within 48 h). The cumulative urinary excretion was 50.5 % of the dose in [11] (setting [20]) and 1.0 % of the dose in data set [11] (5 mg kg^−1 oral, within 48 h). Further, the CLtot is 26.1 mL/min/kg in [11] (intravenous 0.5 mg kg^−1), 31.2 mL/min/kg in data set [11] (intravenous 2.0 mg kg^−1) and 30.3 mL/min/kg in [11] (intravenous 5.0 mg kg^−1). For the same compound, the Vdss was 0.332 L/kg in data set [11] (intravenous 0.5 mg kg^−1), 0.384 L/kg in data set [11] (intravenous 2.0 mg kg^−1) and 0.423 L/kg in [11] (intravenous 5.0 mg kg^−1). Moreover, the values for the mean terminal half-life in data set [11] (intravenous 0.5 mg kg^−1), in data set [11] (intravenous 2.0 mg kg^−1) and in data set [11] (intravenous 5.0 mg kg^−1) were 0.183 h, 0.165 h and 0.21 h, respectively.

For the compound `CCC1(c2ccccc2)C(=O)NC(=O)NC1=O` [phenobarbital], the intestinal permeability in data set [13] was 63.1%.
